Assay results: paper PMC8995209 (Cell, 2022)

Target: iaaH (Agrobacterium tumefaciens, UniProt P0A2X2)
Type: cell-based
Conditions: hydrolysis to NAA; 48 h conditioning

iaaH, sequence (P0A2X2 whole entry): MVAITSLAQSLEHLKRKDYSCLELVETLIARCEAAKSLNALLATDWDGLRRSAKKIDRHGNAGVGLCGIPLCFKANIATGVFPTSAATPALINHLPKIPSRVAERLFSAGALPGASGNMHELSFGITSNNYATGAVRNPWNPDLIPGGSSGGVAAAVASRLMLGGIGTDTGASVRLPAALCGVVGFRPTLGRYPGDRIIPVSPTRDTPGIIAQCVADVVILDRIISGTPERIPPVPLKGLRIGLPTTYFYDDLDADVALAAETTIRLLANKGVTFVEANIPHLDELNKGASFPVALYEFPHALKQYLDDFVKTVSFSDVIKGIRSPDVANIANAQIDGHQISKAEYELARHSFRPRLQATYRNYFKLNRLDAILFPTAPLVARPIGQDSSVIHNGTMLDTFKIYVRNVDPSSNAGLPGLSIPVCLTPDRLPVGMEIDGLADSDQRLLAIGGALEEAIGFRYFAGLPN

SMILES: NC(=O)Cc1cccc2ccccc12 [NAM, 1-naphthaleneacetamide]
- conditioned medium of iaaH-expressing CHO-K1 cells, auxin read out by Receiver c: also able to produce the auxin NAA
